Source: ChEMBL document CHEMBL1201862, “PubChem BioAssay data set” (2004)
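Five concentrations, 48 hours, 96-well plates. Abbreviation: GI50, concentration required for 50% inhibition of growth.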 Activity calls are given as the source filed them. Rule as the data show it: active = GI50 up to about 1.1 µM and inactive = higher.

Legend:
Assay in all cases: NCI tumour cell line growth inhibition, 48 h
NCI-H460 = system: NCI-H460
HOP-62 = system: HOP-62
SF-295 = system: SF-295
786-0 = system: 786-0
CCRF-CEM = system: CCRF-CEM
SNB-19 = system: SNB-19
SK-MEL-28 = system: SK-MEL-28
HCT-116 = system: HCT-116
SN12C = system: SN12C
EKVX = system: EKVX
BT-549 = system: BT-549
OVCAR-5 = system: OVCAR-5
SK-OV-3 = system: SK-OV-3
OVCAR-4 = system: OVCAR-4
A549 = system: A549
OVCAR-8 = system: OVCAR-8
UACC-257 = system: UACC-257
KM12 = system: KM12
OVCAR-3 = system: OVCAR-3
A498 = system: A498
SR = system: SR
MDA-MB-435 = system: MDA-MB-435
MCF7 = system: MCF7
HCT-15 = system: HCT-15
M14 = system: M14
RPMI-8226 = system: RPMI-8226
SK-MEL-2 = system: SK-MEL-2
SK-MEL-5 = system: SK-MEL-5
MDA-MB-231 = system: MDA-MB-231
U-251 = system: U-251
RXF 393 = system: RXF 393
SF-539 = system: SF-539
NCI-H23 = system: NCI-H23
MOLT-4 = system: MOLT-4
IGROV-1 = system: IGROV-1
HOP-92 = system: HOP-92
HL-60 = system: HL-60
CAKI-1 = system: CAKI-1
SF-268 = system: SF-268
Hs-578T = system: Hs-578T
MDA-N = system: MDA-N
PC-3 = system: PC-3
Malme-3M = system: Malme-3M
UACC-62 = system: UACC-62
TK-10 = system: TK-10
UO-31 = system: UO-31
ACHN = system: ACHN
NCI-H226 = system: NCI-H226
T47D = system: T47D
COLO 205 = system: COLO 205
NCI-H522 = system: NCI-H522
HT-29 = system: HT-29
DU-145 = system: DU-145
HCC 2998 = system: HCC 2998
SW-620 = system: SW-620
NCI/ADR-RES = system: NCI/ADR-RES
LOX IMVI = system: LOX IMVI
SNB-75 = system: SNB-75
K562 = system: K562

`COc1cc(OC)c2nc3occc3c(OC)c2c1` was tested, and the GI50 (NCI-H460) was 78 µM (inactive), the GI50 (HOP-62) was > 100 µM (inactive) and the GI50 (SF-295) was 62.8 µM (inactive). The GI50 (786-0) was 96.4 µM (inactive), the GI50 (CCRF-CEM) was > 100 µM (inactive) and the GI50 (SNB-19) was 66.4 µM (inactive). For the same compound, the GI50 (SK-MEL-28) was > 100 µM (inactive), the GI50 (HCT-116) was 76 µM (inactive) and the GI50 (SN12C) was 71.1 µM (inactive). For the same compound, the GI50 (EKVX) was 64.7 µM (inactive), the GI50 (BT-549) was > 100 µM (inactive) and the GI50 (OVCAR-5) was > 100 µM (inactive). The GI50 (SK-OV-3) was 97.5 µM (inactive), the GI50 (OVCAR-4) was 37.1 µM (inactive) and the GI50 (A549) was > 100 µM (inactive). The GI50 (OVCAR-8) was 99.5 µM (inactive), the GI50 (UACC-257) was > 100 µM (inactive) and the GI50 (KM12) was > 100 µM (inactive). For the same compound, the GI50 (OVCAR-3) was > 100 µM (inactive), the GI50 (A498) was > 100 µM (inactive) and the GI50 (SR) was 55.7 µM (inactive). For the same compound, the GI50 (MDA-MB-435) was > 100 µM (inactive), the GI50 (MCF7) was > 100 µM (inactive) and the GI50 (HCT-15) was 30.4 µM. For the same compound, the GI50 (M14) was > 100 µM (inactive), the GI50 (RPMI-8226) was 27.7 µM (inactive) and the GI50 (SK-MEL-2) was > 100 µM (inactive). The GI50 (SK-MEL-5) was 45.7 µM (inactive), the GI50 (MDA-MB-231) was > 100 µM (inactive) and the GI50 (U-251) was > 100 µM (inactive). The GI50 (RXF 393) was 80 µM (inactive), the GI50 (SF-539) was > 100 µM (inactive) and the GI50 (NCI-H23) was > 100 µM (inactive). For the same compound, the GI50 (MOLT-4) was 61.9 µM (inactive), the GI50 (IGROV-1) was > 100 µM (inactive) and the GI50 (HOP-92) was > 100 µM (inactive). For the same compound, the GI50 (HL-60) was 94.8 µM (inactive), the GI50 (CAKI-1) was 77.4 µM (inactive) and the GI50 (SF-268) was > 100 µM (inactive). For the same compound, the GI50 (Hs-578T) was > 100 µM (inactive), the GI50 (MDA-N) was > 100 µM (inactive) and the GI50 (PC-3) was > 100 µM (inactive). For the same compound, the GI50 (Malme-3M) was > 100 µM (inactive), the GI50 (UACC-62) was > 100 µM (inactive) and the GI50 (TK-10) was > 100 µM (inactive). The GI50 (UO-31) was 33.7 µM (inactive), the GI50 (ACHN) was 41.7 µM (inactive) and the GI50 (NCI-H226) was > 100 µM (inactive). For the same compound, the GI50 (T47D) was 61.2 µM (inactive), the GI50 (COLO 205) was > 100 µM (inactive) and the GI50 (NCI-H522) was > 100 µM (inactive). The GI50 (HT-29) was > 100 µM (inactive), the GI50 (DU-145) was > 100 µM (inactive) and the GI50 (HCC 2998) was 41.6 µM (inactive). For the same compound, the GI50 (SW-620) was > 100 µM (inactive), the GI50 (NCI/ADR-RES) was > 100 µM (inactive) and the GI50 (LOX IMVI) was 83.2 µM (inactive). The GI50 (SNB-75) was 67.8 µM (inactive).
For `COC(C)(C)CCc1[nH]c2ccccc2c1CC(=O)NCCc1cncn1C`, the GI50 (NCI-H460) was > 100 µM (inactive), the GI50 (786-0) was > 100 µM (inactive) and the GI50 (CCRF-CEM) was > 100 µM (inactive). For the same compound, the GI50 (SNB-19) was > 100 µM (inactive), the GI50 (SK-MEL-28) was > 100 µM (inactive) and the GI50 (HCT-116) was > 100 µM (inactive). The GI50 (SN12C) was > 100 µM (inactive), the GI50 (EKVX) was > 100 µM (inactive) and the GI50 (BT-549) was > 100 µM (inactive). For the same compound, the GI50 (OVCAR-5) was > 100 µM (inactive), the GI50 (SK-OV-3) was > 100 µM (inactive) and the GI50 (OVCAR-4) was > 100 µM (inactive). For the same compound, the GI50 (A549) was > 100 µM (inactive), the GI50 (OVCAR-8) was > 100 µM (inactive) and the GI50 (UACC-257) was > 100 µM (inactive). For the same compound, the GI50 (KM12) was > 100 µM (inactive), the GI50 (OVCAR-3) was > 100 µM (inactive) and the GI50 (A498) was 34.3 µM (inactive). The GI50 (SR) was > 100 µM (inactive), the GI50 (MDA-MB-435) was > 100 µM (inactive) and the GI50 (MCF7) was > 100 µM (inactive). The GI50 (HCT-15) was over 100 µM, the GI50 (M14) was > 100 µM (inactive) and the GI50 (RPMI-8226) was > 100 µM (inactive). The GI50 (SK-MEL-2) was > 100 µM (inactive), the GI50 (SK-MEL-5) was > 100 µM (inactive) and the GI50 (K562) was > 100 µM (inactive). The GI50 (MDA-MB-231) was > 100 µM (inactive), the GI50 (U-251) was > 100 µM (inactive) and the GI50 (RXF 393) was > 100 µM (inactive). For the same compound, the GI50 (SF-539) was > 100 µM (inactive), the GI50 (NCI-H23) was > 100 µM (inactive) and the GI50 (MOLT-4) was > 100 µM (inactive). For the same compound, the GI50 (IGROV-1) was > 100 µM (inactive), the GI50 (HOP-92) was > 100 µM (inactive) and the GI50 (HL-60) was > 100 µM (inactive). For the same compound, the GI50 (CAKI-1) was > 100 µM (inactive), the GI50 (SF-268) was > 100 µM (inactive) and the GI50 (Hs-578T) was > 100 µM (inactive). For the same compound, the GI50 (MDA-N) was > 100 µM (inactive), the GI50 (PC-3) was > 100 µM (inactive) and the GI50 (Malme-3M) was > 100 µM (inactive). The GI50 (UACC-62) was > 100 µM (inactive), the GI50 (TK-10) was > 100 µM (inactive) and the GI50 (UO-31) was > 100 µM (inactive). For the same compound, the GI50 (ACHN) was > 100 µM (inactive), the GI50 (NCI-H226) was > 100 µM (inactive) and the GI50 (T47D) was > 100 µM (inactive). The GI50 (COLO 205) was > 100 µM (inactive), the GI50 (NCI-H522) was > 100 µM (inactive) and the GI50 (HT-29) was > 100 µM (inactive). The GI50 (DU-145) was > 100 µM (inactive), the GI50 (HCC 2998) was > 100 µM (inactive) and the GI50 (SW-620) was > 100 µM (inactive). For the same compound, the GI50 (NCI/ADR-RES) was > 100 µM (inactive), the GI50 (LOX IMVI) was > 100 µM (inactive) and the GI50 (SNB-75) was > 100 µM (inactive).
`Cc1cn(C2CC(O)C(COP(=O)(O)OC3CC(n4c[n+]([BH2-]C#N)c5c(=O)[nH]c(N)nc54)OC3CO)O2)c(=O)[nH]c1=O` (stereo not drawn) was tested, and the GI50 (NCI-H460) was > 100 µM (inactive), the GI50 (HOP-62) was > 100 µM (inactive) and the GI50 (SF-295) was > 100 µM (inactive). For the same compound, the GI50 (786-0) was > 100 µM (inactive), the GI50 (CCRF-CEM) was > 100 µM (inactive) and the GI50 (SNB-19) was > 100 µM (inactive). For the same compound, the GI50 (SK-MEL-28) was > 100 µM (inactive), the GI50 (HCT-116) was > 100 µM (inactive) and the GI50 (SN12C) was > 100 µM (inactive). For the same compound, the GI50 (EKVX) was > 100 µM (inactive), the GI50 (BT-549) was > 100 µM (inactive) and the GI50 (OVCAR-5) was > 100 µM (inactive). For the same compound, the GI50 (SK-OV-3) was > 100 µM (inactive), the GI50 (OVCAR-4) was > 100 µM (inactive) and the GI50 (A549) was > 100 µM (inactive). For the same compound, the GI50 (OVCAR-8) was > 100 µM (inactive), the GI50 (UACC-257) was > 100 µM (inactive) and the GI50 (KM12) was > 100 µM (inactive). For the same compound, the GI50 (OVCAR-3) was > 100 µM (inactive), the GI50 (A498) was > 100 µM (inactive) and the GI50 (SR) was > 100 µM (inactive). For the same compound, the GI50 (MDA-MB-435) was > 100 µM (inactive), the GI50 (MCF7) was > 100 µM (inactive) and the GI50 (HCT-15) was over 100 µM. For the same compound, the GI50 (RPMI-8226) was > 100 µM (inactive), the GI50 (SK-MEL-2) was > 100 µM (inactive) and the GI50 (SK-MEL-5) was > 100 µM (inactive). The GI50 (K562) was > 100 µM (inactive), the GI50 (MDA-MB-231) was > 100 µM (inactive) and the GI50 (U-251) was > 100 µM (inactive). The GI50 (RXF 393) was > 100 µM (inactive), the GI50 (SF-539) was > 100 µM (inactive) and the GI50 (NCI-H23) was > 100 µM (inactive). The GI50 (MOLT-4) was > 100 µM (inactive), the GI50 (IGROV-1) was > 100 µM (inactive) and the GI50 (HOP-92) was > 100 µM (inactive). The GI50 (HL-60) was > 100 µM (inactive), the GI50 (CAKI-1) was > 100 µM (inactive) and the GI50 (SF-268) was > 100 µM (inactive). The GI50 (Hs-578T) was > 100 µM (inactive), the GI50 (MDA-N) was > 100 µM (inactive) and the GI50 (PC-3) was > 100 µM (inactive). The GI50 (Malme-3M) was > 100 µM (inactive), the GI50 (UACC-62) was > 100 µM (inactive) and the GI50 (TK-10) was > 100 µM (inactive). The GI50 (UO-31) was > 100 µM (inactive), the GI50 (ACHN) was > 100 µM (inactive) and the GI50 (NCI-H226) was > 100 µM (inactive). The GI50 (T47D) was > 100 µM (inactive), the GI50 (COLO 205) was > 100 µM (inactive) and the GI50 (NCI-H522) was > 100 µM (inactive). For the same compound, the GI50 (HT-29) was > 100 µM (inactive), the GI50 (DU-145) was > 100 µM (inactive) and the GI50 (HCC 2998) was > 100 µM (inactive). The GI50 (SW-620) was > 100 µM (inactive), the GI50 (NCI/ADR-RES) was > 100 µM (inactive) and the GI50 (LOX IMVI) was > 100 µM (inactive). The GI50 (SNB-75) was > 100 µM (inactive).
